System: Helicoverpa armigera larvae (third instar)
Assay: Bioassay of meroterpenoid using H. armigera larvae (cotton leaf dip feeding)
Format: in vivo
Conditions: for Mortality (%) / Survival (%): treated cotton leaves, recorded up to 6 days
From the text: The cotton Bollworm, Helicoverpa armigera is considered as one of the major threats to present day intensive agriculture. […] Cotton leaves were surface sterilized with 0.5% sodium hypochlorite, rinsed in sterile water and shade dried. The leaves were dipped in respective concentration of the insecticide for 30 seconds and then they were drained and dried at room temperature. The turgidity was maintained by surrounding the petiole with cotton wool saturated with water. The petioles of the leaves with cotton swab were kept immersed in water and were used control. The entire setup was kept enclosed in mylar film cage and Helicoverpa armigera larvae (third instar) of 30-40 milligrams weight were allowed to feed. Mortality rate was recorded at 24 hours intervals up to 6 days.

COc1ccc(-c2cc3c(c(=O)o2)C[C@@]2(O)[C@@]4(C)C(=O)[C@@]5(OC)C(=O)O[C@]4(CC[C@@]2(C)O3)C5(C)C)cc1 [Terreulactone A, terreulactone A]
Mortality (%) (2.5 μg terreulactone A): 52.5%
Survival (%) (2.5 μg terreulactone A): 47.5%
Mortality (%) (5.0 μg terreulactone A): 62.5%
Survival (%) (5.0 μg terreulactone A): 37.5%
Mortality (%) (10 μg terreulactone A): 82.5%
Survival (%) (10 μg terreulactone A): 17.5%
mortality rate of the larval pests (in words) (larval pests fed on treated plant or plant parts): increased the mortality rate

— patent US8383128B2, “Method of protecting plant(s) and a process thereof” (priority 2008, dated 2013)
